Data: paper PMC10675597, “Design, Synthesis, and Antisickling Investigation of a Thiazolidine Prodrug of TD-7 That Prolongs the Duration of Action of Antisickling Aromatic Aldehyde” (Pharmaceutics, 2023)

Tests used:
[1] = system: SS cells (homozygous sickle cell blood); test: In-vitro time-dependent RBC sickling inhibition under hypoxia; assay type: cell-based, human; settings: 2 mM, SS cells 20% hematocrit, hypoxia (4% oxygen/96% nitrogen)
Procedure: Red blood cell sickling inhibition studies with Pro-7 and the control TD-7 was conducted using previously reported procedure. Blood suspensions from subjects with homozygous SCD (hematocrit 20%) were incubated under air in the absence or presence of test compounds at 37 °C for 1 h to ensure that binding has attained equilibrium. […] Aliquot samples were fixed with 2% glutaraldehyde solution without exposure to air, and then subjected to microscopic morphological analysis.
Human normal whole blood was used to assess the degree of Hb modification and Hb oxygen affinity (P50 shift), while sickle blood was used to investigate RBC sickling inhibition. […] The results summarized in Table 1 and Figure 4A–C show time-dependent effects for all three pharmacodynamic activities. […] Even at the end of the 24-h experiment, Pro-7 activity was still increasing.

[2] = target: T1, Hb in human normal whole blood (Homo sapiens, UniProt P69905); test: In-vitro time-dependent oxygen equilibrium study (P50 shift); assay type: cell-based; settings: 2 mM, normal whole blood 30% hematocrit
T1 construct: normal whole blood (AA) was collected from adult donors; from tissue; host or cells: normal (AA) human whole blood from adult donors, 30% hematocrit
Procedure: An oxygen equilibrium curve study was conducted in a time-dependent manner to determine the effect and duration of Pro-7 on Hb affinity for oxygen (P50 shift) following standard procedure. Pro-7, along with the controls TD-7 and DMSO were used for the studies with normal whole blood sample (30% hematocrit). Each compound was incubated with the blood at a final concentration of 2 mM, and aliquot samples were taken at 1, 3, 6, 12 and 24 h and further incubated in IL 237 tonometer (Instrumentation Laboratories, Inc., Lexington, MA, USA) for 10 min at 37 °C, and allowed to equilibrate at oxygen tensions 6, 20, and 40 mmHg. The samples were then aspirated into a Radiometer ABL 800 Automated Blood Gas Analyzer (Copenhagen, Denmark ) to determine the pH, partial pressure of CO2 (pCO2), partial pressure of oxygen (pO2), and Hb oxygen saturation values (SO2). The measured values of pO2 (mmHg) and SO2 at each pO2 value were then subjected to a non-linear regression analysis using the program Scientist (Micromath, Salt Lake City, UT, USA) to estimate P50 as a measure of Hb oxygen affinity as previously reported.
(§1) Human normal whole blood was used to assess the degree of Hb modification and Hb oxygen affinity (P50 shift), while sickle blood was used to investigate RBC sickling inhibition. Pro-7 and the positive control TD-7 were incubated with normal whole blood suspensions. […] For the sickling inhibition study, Pro-7 and the positive control TD-7 were incubated with SS blood suspensions under hypoxic conditions (2.5% O2/97.5% N2), and aliquot blood samples were drawn at three time points (1, 3 and 6 h) and used for assessing RBC morphology. The results summarized in Table 1 and Figure 4A–C show time-dependent effects for all three pharmacodynamic activities. […] Even at the end of the 24-h experiment, Pro-7 activity was still increasing.

[3] = In-vitro stability in different pH buffers (aldehyde peak absorbance at 349 nm); assay type: physicochemical; settings: for Stability (absorbance of aldehyde peak at 349 nm): 1 mM, 37 °C
Procedure: The stability of Pro-7 and the control TD-7 in different pH buffers (PBS buffer at pH 7.4, KCl·HCl buffer at pH 2.0, and Tris buffer at pH 8.0) was evaluated over time as previously reported. The ionic strength of all buffers was kept constant at 150 mM. A 200 mM stock solution of each compound was prepared using anhydrous DMSO. 1 mM solutions of each of the test compounds TD-7 and Pro-7 were prepared in duplicate for each of the three different pH buffers. […]
An in-vitro time-dependent (1–96 h) stability study of Pro-7 was conducted to inform the formulation of the prodrug. The study was conducted at three different pHs: 2.0, 7.4 and 8.0, which mimic stomach, blood and intestinal pH conditions, respectively. The presence of TD-7 or the rate of appearance of TD-7 upon dissociation of Pro-7 was monitored at 349 nm spectrophotometrically.

[4] = target: T1, Hb in human normal whole blood; test: In-vitro time-dependent Hb modification (Hb adduct formation), cation-exchange HPLC; assay type: cell-based; settings: 2 mM, normal whole blood 30% hematocrit
Procedure: Pro-7 and the control TD-7 were used to conduct time-dependent Hb modification (Hb adduct formation) studies using normal whole blood as previously reported. A 200 mM stock solution of each compound was made with DMSO. In a 96-well 1.2 mL polypropylene deep-well plate (Thermo Scientific, Hampshire, UK), 2.0 mM concentration of each compound was added to 600 μL of whole blood (30% hematocrit), which was then incubated at 37 °C for 24 h with shaking (at 140 rpm). A control sample was supplemented only with an equivalent volume of DMSO. At different time points (0–24 h), 50 μL aliquots of this mixture were withdrawn from each well using a multichannel pipette and added to respective tubes containing 50 μL of sodium cyanoborohydride (NaBH3CN) and sodium borohydride (NaBH4) mixture (1:1 v/v 50 mM stock) to terminate the Schiff-base reaction, fix the Schiff-base Hb adducts and reduce the free reactive aldehyde. After mixing, the tubes were stored immediately at −80 °C until ready for analysis using cation-exchange HPLC (Hitachi D-7000 Series, Hitachi Instruments, Inc. San Jose, CA, USA) for Hb-compound adduct formation. The observed Hb adducts in %Hb modification were plotted as a function of time (h).
as §1

T1 sequence (P69905 2-142 limits assumed): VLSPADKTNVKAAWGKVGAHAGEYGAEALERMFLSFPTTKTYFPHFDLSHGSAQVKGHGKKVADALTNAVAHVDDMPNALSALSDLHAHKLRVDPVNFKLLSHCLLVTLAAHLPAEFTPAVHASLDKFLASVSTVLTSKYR
T1 sequence (P68871 2-147 partner limits assumed): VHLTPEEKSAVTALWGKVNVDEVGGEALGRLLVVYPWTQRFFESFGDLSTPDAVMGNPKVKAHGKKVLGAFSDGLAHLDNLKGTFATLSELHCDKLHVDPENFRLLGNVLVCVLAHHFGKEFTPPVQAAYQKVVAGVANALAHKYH

1-(2-(3-((6-(hydroxymethyl)pyridin-2-yl)methoxy)-5 methoxyphenyl)thiazolidin-4-yl)propan-1-one [Pro-7]
%Sickling Inhibition ([1]; 1 h): 12.53% | %Sickling Inhibition ([1]; 3 h): 40.76% | %Sickling Inhibition ([1]; 6 h): 52.04% | %Hb O2 Affinity (P50 Shift) ([2]; 1 h): 6.48 ± 1.54% | %Hb O2 Affinity (P50 Shift) ([2]; 3 h): 13.57 ± 5.53% | %Hb O2 Affinity (P50 Shift) ([2]; 6 h): 21.64 ± 10.93% | %Hb O2 Affinity (P50 Shift) ([2]; 12 h): 41.04 ± 10.93% | %Hb O2 Affinity (P50 Shift) ([2]; 24 h): 43.87 ± 3.22% | degradation to release TD-7 (in words) ([3]; pH 2.0): very fast degradation | time for formation of TD-7 from Pro-7 to be almost completed ([3]; pH 2.0): ≤ 1 h | Stability (absorbance of aldehyde peak at 349 nm) ([3]; pH 2.0, 0 hr): 1.22 ± 0.4 | Stability (absorbance of aldehyde peak at 349 nm) ([3]; pH 2.0, 1 hr): 3.16 ± 0.2 | Stability (absorbance of aldehyde peak at 349 nm) ([3]; pH 2.0, 2 hr): 3.17 ± 0.09 | Stability (absorbance of aldehyde peak at 349 nm) ([3]; pH 2.0, 3 hr): 3.36 ± 0.03 | Stability (absorbance of aldehyde peak at 349 nm) ([3]; pH 2.0, 6 hr): 3.27 ± 0.02 | Stability (absorbance of aldehyde peak at 349 nm) ([3]; pH 2.0, 24 hr): 3.05 ± 0.00 | Stability (absorbance of aldehyde peak at 349 nm) ([3]; pH 7.4, 0 hr): 0.14 ± 0.01 | Stability (absorbance of aldehyde peak at 349 nm) ([3]; pH 7.4, 1 hr): 0.16 ± 0.00 | Stability (absorbance of aldehyde peak at 349 nm) ([3]; pH 7.4, 2 hr): 0.17 ± 0.00 | Stability (absorbance of aldehyde peak at 349 nm) ([3]; pH 7.4, 3 hr): 0.09 ± 0.09 | Stability (absorbance of aldehyde peak at 349 nm) ([3]; pH 7.4, 6 hr): 0.22 ± 0.00 | Stability (absorbance of aldehyde peak at 349 nm) ([3]; pH 7.4, 24 hr): 0.49 ± 0.00 | Stability (absorbance of aldehyde peak at 349 nm) ([3]; pH 7.4, 28 hr): 0.55 ± 0.00 | Stability (absorbance of aldehyde peak at 349 nm) ([3]; pH 7.4, 48 hr): 0.98 ± 0.02 | Stability (absorbance of aldehyde peak at 349 nm) ([3]; pH 7.4, 56 hr): 1.10 ± 0.03 | Stability (absorbance of aldehyde peak at 349 nm) ([3]; pH 7.4, 72 hr): 1.77 ± 0.07 | Stability (absorbance of aldehyde peak at 349 nm) ([3]; pH 7.4, 96 hr): 2.59 ± 0.03 | Stability (absorbance of aldehyde peak at 349 nm) ([3]; pH 8.0, 0 hr): 0.14 ± 0.00 | Stability (absorbance of aldehyde peak at 349 nm) ([3]; pH 8.0, 1 hr): 0.12 ± 0.00 | Stability (absorbance of aldehyde peak at 349 nm) ([3]; pH 8.0, 2 hr): 0.15 ± 0.00 | Stability (absorbance of aldehyde peak at 349 nm) ([3]; pH 8.0, 3 hr): 0.17 ± 0.00 | Stability (absorbance of aldehyde peak at 349 nm) ([3]; pH 8.0, 6 hr): 0.24 ± 0.01 | Stability (absorbance of aldehyde peak at 349 nm) ([3]; pH 8.0, 24 hr): 0.64 ± 0.16 | Stability (absorbance of aldehyde peak at 349 nm) ([3]; pH 8.0, 28 hr): 1.00 ± 0.05 | Stability (absorbance of aldehyde peak at 349 nm) ([3]; pH 8.0, 48 hr): 1.33 ± 0.32 | Stability (absorbance of aldehyde peak at 349 nm) ([3]; pH 8.0, 72 hr): 1.89 ± 0.04 | Stability (absorbance of aldehyde peak at 349 nm) ([3]; pH 8.0, 96 hr): 1.86 ± 0.01 | degradation to release TD-7 (in words) ([3]; pHs 7.4 and 8.0): slow degradation | time for TD-7 to be detected in a significant amount ([3]; pHs 7.4 and 8.0): ~ 6 h | time to full dissociation into TD-7 ([3]; pHs 7.4 and 8.0): approximately four days | %Hb Modification (Hb Adduct) ([4]; 0 h): 0.00 ± 0.00% | %Hb Modification (Hb Adduct) ([4]; 1 h): 7.10 ± 4.40% | %Hb Modification (Hb Adduct) ([4]; 2 h): 14.30 ± 6.80% | %Hb Modification (Hb Adduct) ([4]; 4 h): 17.50 ± 7.10% | %Hb Modification (Hb Adduct) ([4]; 8 h): 29.70 ± 10.9% | %Hb Modification (Hb Adduct) ([4]; 12 h): 41.20 ± 15.8% | %Hb Modification (Hb Adduct) ([4]; 24 h): 54.80 ± 21.8%
